Assay results published in PubChem BioAssay (NCI).
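Results reflect a 48-hour exposure of cells in 96-well plates to compound at five concentrations. TGI denotes the concentration required for complete inhibition of growth.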

Legend:
Assay in all cases: NCI-60 cell line screen, 48 h
[1] = test system: OVCAR-5 ovarian
[2] = test system: T-47D breast
[3] = test system: DU-145 prostate
[4] = test system: HT29 colon
[5] = test system: M14 melanoma
[6] = test system: SF-295 CNS
[7] = test system: SK-MEL-2 melanoma
[8] = test system: MALME-3M melanoma
[9] = test system: NCI/ADR-RES ovarian
[10] = test system: OVCAR-8 ovarian
[11] = test system: NCI-H23 lung
[12] = test system: SF-268 CNS
[13] = test system: U251 CNS
[14] = test system: COLO 205 colon
[15] = test system: SW-620 colon
[16] = test system: HCT-15 colon
[17] = test system: MDA-MB-231 breast
[18] = test system: UACC-257 melanoma
[19] = test system: NCI-H226 lung
[20] = test system: A549 NSCLC
[21] = test system: RPMI-8226 leukemia
[22] = test system: UO-31 renal
[23] = test system: MDA-N
[24] = test system: IGROV1 ovarian
[25] = test system: SK-OV-3 ovarian
[26] = test system: MCF7 breast
[27] = test system: HOP-92 NSCLC
[28] = test system: HS 578T breast
[29] = test system: CAKI-1 renal
[30] = test system: NCI-H522 lung
[31] = test system: MOLT-4 leukemia
[32] = test system: SN12C renal
[33] = test system: BT-549 breast
[34] = test system: HCC-2998 colon
[35] = test system: SR leukemia
[36] = test system: HOP-62 NSCLC
[37] = test system: A498 renal
[38] = test system: SK-MEL-5 melanoma
[39] = test system: SNB-19 CNS
[40] = test system: RXF 393 renal
[41] = test system: EKVX NSCLC
[42] = test system: KM12 colon
[43] = test system: SK-MEL-28 melanoma
[44] = test system: TK-10 renal
[45] = test system: UACC-62 melanoma
[46] = test system: CCRF-CEM leukemia
[47] = test system: HL-60(TB) leukemia
[48] = test system: PC-3 prostate
[49] = test system: SNB-75 CNS
[50] = test system: OVCAR-3 ovarian
[51] = test system: LOX IMVI melanoma
[52] = test system: MDA-MB-435
[53] = test system: OVCAR-4 ovarian
[54] = test system: NCI-H460 lung
[55] = test system: K-562 leukemia
[56] = test system: ACHN renal
[57] = test system: HCT-116 colon
[58] = test system: 786-0 renal

## Fc1ccc(C(OCCN2CCN(CCCc3ccccc3)CC2)c2ccc(F)cc2)cc1
[1]
  TGI: 15.7 µM
[2]
  TGI: 19.3 µM
[3]
  TGI: 19.5 µM
[4]
  TGI: 12.3 µM
[5]
  TGI: 11.3 µM
[6]
  TGI: 15.2 µM
[7]
  TGI: 12.2 µM
[8]
  TGI: 17 µM
[9]
  TGI: 12.6 µM
[10]
  TGI: 13 µM
[11]
  TGI: 15.3 µM
[12]
  TGI: 14.6 µM
[13]
  TGI: 14.3 µM
[14]
  TGI: 10.1 µM
[15]
  TGI: > 50.6 µM
[16]
  TGI: 13.4 µM
[17]
  TGI: 11.3 µM
[18]
  TGI: 8.62 µM
[19]
  TGI: 13.9 µM
[20]
  TGI: 14 µM
[21]
  TGI: 8.63 µM
[22]
  TGI: 12 µM
[23]
  TGI: 14.3 µM
[24]
  TGI: 22.2 µM
[25]
  TGI: 18.9 µM
[26]
  TGI: 18.9 µM
[27]
  TGI: 11.6 µM
[28]
  TGI: 10.1 µM
[29]
  TGI: 13.5 µM
[30]
  TGI: 12.4 µM
[31]
  TGI: 19 µM
[32]
  TGI: 15.8 µM
[33]
  TGI: 19.3 µM
[34]
  TGI: 11.7 µM
[35]
  TGI: 10 µM
[36]
  TGI: 17.7 µM
[37]
  TGI: 19.7 µM
[38]
  TGI: 10.1 µM
[39]
  TGI: 14.5 µM
[40]
  TGI: 11.3 µM
[41]
  TGI: 15.2 µM
[42]
  TGI: 17.1 µM
[43]
  TGI: 23.6 µM
[44]
  TGI: 18.7 µM
[45]
  TGI: 21.4 µM
[46]
  TGI: > 100 µM
[47]
  TGI: 16 µM
[48]
  TGI: 12 µM
[49]
  TGI: 16.4 µM
[50]
  TGI: 15.9 µM
[51]
  TGI: 15.6 µM
[52]
  TGI: 14 µM
[53]
  TGI: 15.8 µM
[54]
  TGI: 15.3 µM
[55]
  TGI: 16.1 µM
[56]
  TGI: 17.4 µM

## NC(=O)CNC(=O)[C@@H]1CC(OCCC(=O)O)CN1C(=O)C1CCCN1C(=O)OCc1ccccc1 (stereo partly specified)
[1]
  TGI: > 100 µM
[2]
  TGI: > 100 µM
[3]
  TGI: > 100 µM
[4]
  TGI: > 100 µM
[5]
  TGI: > 100 µM
[6]
  TGI: > 100 µM
[7]
  TGI: > 100 µM
[8]
  TGI: > 100 µM
[9]
  TGI: > 100 µM
[10]
  TGI: > 100 µM
[11]
  TGI: > 100 µM
[12]
  TGI: > 100 µM
[13]
  TGI: > 100 µM
[14]
  TGI: > 100 µM
[15]
  TGI: > 100 µM
[16]
  TGI: > 100 µM
[17]
  TGI: > 100 µM
[18]
  TGI: > 100 µM
[19]
  TGI: > 100 µM
[20]
  TGI: > 100 µM
[21]
  TGI: > 100 µM
[22]
  TGI: > 100 µM
[23]
  TGI: > 100 µM
[24]
  TGI: > 100 µM
[25]
  TGI: > 100 µM
[26]
  TGI: > 100 µM
[28]
  TGI: > 100 µM
[30]
  TGI: > 100 µM
[31]
  TGI: > 100 µM
[32]
  TGI: > 100 µM
[33]
  TGI: > 100 µM
[35]
  TGI: > 100 µM
[36]
  TGI: > 100 µM
[37]
  TGI: > 100 µM
[38]
  TGI: > 100 µM
[39]
  TGI: > 100 µM
[40]
  TGI: > 100 µM
[41]
  TGI: > 100 µM
[42]
  TGI: > 100 µM
[43]
  TGI: > 100 µM
[57]
  TGI: > 100 µM
[44]
  TGI: > 100 µM
[45]
  TGI: > 100 µM
[46]
  TGI: > 100 µM
[47]
  TGI: > 100 µM
[48]
  TGI: > 100 µM
[49]
  TGI: > 100 µM
[50]
  TGI: > 100 µM
[51]
  TGI: > 100 µM
[58]
  TGI: > 100 µM
[52]
  TGI: > 100 µM
[53]
  TGI: > 100 µM
[54]
  TGI: > 100 µM
[55]
  TGI: > 100 µM
[56]
  TGI: > 100 µM
